{"source": "patent US8507219B2", "about": "“Method of treating inflammation with statins” (MUSC Foundation for Research Development, priority 1997, dated 2013)", "key": {"[1]": {"tested_on": "IL-6 production in rat macrophages", "test": "LPS-induced IL-6 production (ELISA) in rat macrophages", "format": "cell-based"}, "iNOS": {"tested_on": "iNOS", "test": "Immunofluorescence of iNOS in brain sections of EAE rats", "format": "in vivo, Lewis rats", "experimental": "One group of animals induced for EAE was left untreated while another group of animals was not induced for EAE and used as the control group.\nImmunohistochemistry Brains were fixed in 10% buffered formalin (Stephens Scientific, Riverdale, N.J.). The tissues were embedded in paraffin and sectioned at 4 μm. Sections were then stained for various cytokines and cell markers as described below. For single-label immunohistochemistry, sections were incubated with either anti-iNOS antibody (1:100, rabbit polyclonal, Calbiochem, LaJolla, Calif.) or anti-TNF-α antibody (1:100, rabbit polyclonal, Genzyme, Cambridge, Mass.) or anti-IFN-γ antibody (1:200, rabbit polyclonal, Biosource International, Camarillo, Calif.) essentially as described for other antibodies (Hooper et al., 1997). The tissue sections were further incubated with FITC conjugated anti-rabbit IgG (1:100, Sigma, St. Louis, Mo.), mounted with mounting media (EMS) and analyzed by immunofluorescence microscopy (Olympus) using Adobe photoshop software. For immunofluorescent double-labeling, sections were incubated first with anti-iNOS (1:100) followed by macrophage marker ED1 (1:100, mouse monoclonal, Biosource International, Camarillo, Calif.). Anti-iNOS was visualized using TRITC conjugated anti-rabbit IgG—(1:100, Sigma, St. Louis, Mo.) and ED1 using FITC conjugated anti-mouse IgG (1:100, Sigma, St. Louis, Mo.). […]"}, "[2]": {"tested_on": "IL-6 production in rat primary microglia", "test": "LPS-induced IL-6 production (ELISA) in rat primary microglia", "format": "cell-based"}, "[3]": {"tested_on": "IL-1β production in rat primary astrocytes", "test": "LPS-induced IL-1β production (ELISA) in rat primary astrocytes", "format": "cell-based", "experimental": "Determination of TNF-α and IL-1β in culture supernatants Cells were stimulated with LPS in serum-free media for 24 h in the presence or absence of forskolin or rolipram, and concentrations of TNF-α and IL-1β were measured in culture supernatants by using high-sensitivity enzyme-linked immunosorbent assay (R&D Systems, USA) according to the manufacturer's instructions."}, "[4]": {"tested_on": "control human skin fibroblasts", "test": "β-oxidation of lignoceric acid in control human skin fibroblasts", "format": "cell-based"}, "NF-kβ": {"tested_on": "NF-kβ", "format": "cell-based, rat", "experimental": "Preparation of Nuclear Extracts and Electrophoretic Mobility shift assay Nuclear extracts from stimulated or unstimulated astrocytes (1×10^7 cells) were prepared using the method of Dignam et al. (1983) with slight modification. Cells were harvested, washed twice with ice-cold phosphate-buffered saline and lysed in 400 μl of buffer A (10 mM HEPES, pH 7.9, 10 mM KCl, 2 mM MgCl2, 0.5 mM DTT, 1 mM PMSF, 5 μg/ml aprotinin, 5 μg/ml pepstatin A, and 5 μg/ml leupeptin (Sigma, St. Louis, Mo.) containing 0.1% Nondet P-40 for 15 min on ice, vortexed vigorously for 15 s, and centrifuged at 14,000 rpm for 30 s. The pelleted nuclei were resuspended in 40 μl of buffer B (20 mM HEPES, pH 7.9, 25% (v/v) glycerol, 0.42 M NaCl, 1.5 mM MgCl2, 0.2 mM EDTA, 0.5 mM DTT, 1 mM PMSF, 5 μg/ml aprotinin, 5 μg/ml pepstatin A, and 5 μg/ml leupeptin). After 30 min on ice, lysates were centrifuged at 14,000 rpm for 10 min. Supernatants containing the nuclear proteins were diluted with 20 μl of modified buffer C (20 mM HEPES, pH 7.9, 20% (v/v) glycerol, 0.05 M KCl, 0.2 mM EDTA, 0.5 mM DTT, and 0.5 mM PMSF) and stored at −70° C. until use. Nuclear extracts were used for the electrophoretic mobility shift assay using the NF-kβ DNA binding protein detection system kit (GIBCO/BRL), according to the manufacturer's protocol.\nPreparation of nuclear extracts and electrophoretic mobility shift assay Nuclear extracts from stimulated or unstimulated astrocytes (1×10^7 cells) were prepared as described (Dignam et al., 1983) with slight modification. Cells were harvested, washed twice with ice-cold phosphate-buffered saline and lysed in 400 μl of buffer A (10 mM HEPES, pH 7.9, 10 mM KCl, 2 mM MgCl2, 0.5 mM DTT, 1 mM PMSF, 5 μg/ml aprotinin, 5 μg/ml pepstatin A, and 5 μg/ml leupeptin) containing 0.1% Nonidet P40 for 15 min on ice, vortexed vigorously for 15 s, and centrifuged at 14,000 rpm for 30 s. […]"}, "[5]": {"tested_on": "IL-6 production in rat primary astrocytes", "test": "LPS-induced IL-6 production (ELISA) in rat primary astrocytes", "format": "cell-based"}, "[6]": {"conditions": "Astrocytes, 10 μM lovastatin or 5 mM NaPA 8 h, then LPS 1.0 μg/ml, 24 h"}}, "note": "Read-outs that look alike come from different tables or passages of the source.", "data": [{"compound": "O=C([O-])Cc1ccccc1.[Na+]", "note": "[NaPA, sodium salt of phenylacetic acid]", "values": [{"measurement": "Production of IL-6", "setting": "[1]", "value": "10.2 ± 1.4", "unit": "ng/24 h/mg protein"}, {"measurement": "expression of iNOS in EAE brain", "setting": "iNOS; rat, in vivo, ip", "value": "blocked the ability of MBP to induce the expression of iNOS"}, {"measurement": "Production of IL-6", "setting": "[2]", "value": "9.3 ± 1.2", "unit": "ng/24 h/mg protein"}, {"measurement": "Production of IL-1β", "setting": "[3]", "value": "1.1 ± 0.2", "unit": "ng/24 h/mg protein"}, {"measurement": "Lignoceric acid β-oxidation", "setting": "[4]", "value": "826.2 ± 87.2", "unit": "pmol/h/mg protein"}, {"measurement": "LPS-induced activation of NF-kβ", "setting": "NF-kβ", "value": "markedly inhibited for the LPS-induced activation of NF-kβ"}, {"measurement": "Production of IL-6", "setting": "[5]", "value": "7.6 ± 0.8", "unit": "ng/24 h/mg protein"}]}, {"compound": "CC(=O)N[C@@H](CS)C(=O)O", "note": "[NAC, N-acetyl cysteine]", "values": [{"measurement": "expression of iNOS in EAE brain", "setting": "iNOS; daily i.p. treatment from day 1", "value": "blocked the ability of MBP to induce the expression of iNOS"}]}, {"compound": "CC[C@H](C)C(=O)O[C@H]1C[C@@H](C)C=C2C=C[C@H](C)[C@H](CC[C@@H]3C[C@@H](O)CC(=O)O3)[C@H]21", "note": "[Lovastatin]", "values": [{"measurement": "Production of IL-6", "setting": "[1]; Macrophages, 10 μM lovastatin or 5 mM NaPA 8 h, then LPS 1.0 μg/ml, 24 h", "value": "8.3 ± 0.6", "unit": "ng/24 h/mg protein"}, {"measurement": "Production of IL-6", "setting": "[2]; Microglia, 10 μM lovastatin or 5 mM NaPA 8 h, then LPS 1.0 μg/ml, 24 h", "value": "7.8 ± 1.1", "unit": "ng/24 h/mg protein"}, {"measurement": "Production of IL-1β", "setting": "[3]; [6]", "value": "0.8 ± 0.1", "unit": "ng/24 h/mg protein"}, {"measurement": "Lignoceric acid β-oxidation", "setting": "[4]; 72 h, Lovastatin 5 μM, Mevastatin 5 μM, NaPA 5 mM, Control 570.2 ± 52.3", "value": "945.7 ± 105.6", "unit": "pmol/h/mg protein"}, {"measurement": "LPS-induced activation of NF-kβ", "setting": "NF-kβ; LPS 1.0 μg/ml, 1 h", "value": "markedly inhibited for the LPS-induced activation of NF-kβ"}, {"measurement": "Production of IL-6", "setting": "[5]; [6]", "value": "6.9 ± 0.9", "unit": "ng/24 h/mg protein"}]}]}
